# Results from article PMC6934184, “Selective DNA-PKcs inhibition extends the therapeutic index of localized radiotherapy and chemotherapy” (The Journal of Clinical Investigation, 2019).
# Columns and labels:
# SJSA-1 = test: clonogenic survival with etoposide; type: cell-based, human; conditions: NU5455 1 μM, 24 hours
# Protocol: (§1) Cell line γH2AX and 53BP1 foci immunofluorescence and quantitation
# (§2) Cells grown on coverslips or in 96-well plates were treated with 1 or 5 µM NU5455 or DMSO 1 hour prior to irradiation (0, 2.5 or 10 Gy) using an RS 320 X-ray Research System (Gulmay Medical). At set timepoints (15 or 30 minutes, or 1, 4, 5, 6, or 24 hours post-irradiation), cells were washed and fixed in methanol or 3% paraformaldehyde (PFA). […] In A549 and Calu-6, cells were Hoechst stained (5 µg/ml), and the average numbers of γH2AX and 53BP1 foci per cell were quantified from 400 nuclei per sample using an In Cell analyzer 1000 (GE Healthcare). For MCF7 cells, coverslips were mounted using Vectashield mounting medium with DAPI (Vector Labs) and imaged using a Leica TCS SPE confocal fluorescence microscope. Total fluorescence intensity was determined using ImagePro Plus 5.0 software (Media Cybernetics). […]
# (§3) Cells were washed in phosphate-buffered saline (PBS), trypsinized and counted. […] Colonies were fixed using Carnoys fixture (75% v/v methanol, 25% v/v acetic acid, Fisher), stained with crystal violet (0.4% w/v in water), and counted using a ColCount automated colony counter (Oxford Optronics). Cell survival was calculated as a percentage of the untreated control. […]
# [1] = test system: DNA-PK–expressing tumor cell lines; test: clonogenic survival with IR, tumor cell line panel; type: cell-based, human; conditions: 1 μM, 24 hours
# Protocol: as §1, §2, §3
smiles,measurement,setting,value
CN(C(=O)CN1CCOCC1)c1ccc2sc3c(-c4cccc5c(=O)cc(N6CC7CCC(C6)O7)oc45)cccc3c2c1 [NU5455],"Fold potentiation of etoposide (LD80, SER80)",SJSA-1,4.1 fold
same,"SER80 values, median over cell lines",[1],2.3 fold
